Results reported in US3944580A, “7-[2-(Dithiocarboxylamino)alkanamido]-cephalosporanic acid derivatives” (American Home Products Corporation, priority 1974, dated 1976).
Values after ≈ are worked out from the molar mass of the structure shown. Like-named read-outs stand apart in the source and are kept apart here.

Key:
[1] = system: escherichia intermedia (ES IN) 65-1; experiment: agar serial dilution MIC, ES IN 65-1; type: cell-based; settings: Citrobacter intermedius, ES IN strain 65-1
Text: (§1) The compounds of this invention are antibacterials effective against gram-positive and gram-negative test organisms as well as penicillin resistant staphylococcus at an inhibitory concentration at or below 250 micrograms per milliliter using the well-known and scientifically accepted agar serial dilution technique. […] Thus, the compounds of this invention are useful in the fields of comparative pharmacology and microbiology and may be used in the treatment of bovine mastitis, as growth promotors in animals and for the treatment of infections amenable to treatment with penicillins and cephalosporins.
(§2) The following examples are presented for purposes of illustration and should not be construed as limitations upon the true scope of this invention.
Es in -- escherichia intermedia

EN AE 13048 = experiment: agar serial dilution MIC, EN AE 13048; type: cell-based; settings: EN AE strain 13048
Text: as §1, §2

[2] = system: neisseria catarrhalis (NE CA) 8193; experiment: agar serial dilution MIC, NE CA 8193; type: cell-based; settings: NE CA strain 8193
Text: as §1, §2
Ne ca -- neisseria catarrhalis

[3] = system: staphylococcus aureus (ST AU) 53-180; experiment: agar serial dilution MIC, ST AU 53-180; type: cell-based
Text: as §1, §2
(§3) St au -- staphylococcus aureus

[4] = system: proteus vulgaris (PR VU) 6896; experiment: agar serial dilution MIC, PR VU 6896; type: cell-based; settings: PR VU strain 6896
Text: as §1, §2
Pr vu -- proteus vulgaris

[5] = system: escherichia coli (ES CO) 9637; experiment: agar serial dilution MIC, ES CO 9637; type: cell-based; settings: ES CO strain 9637
Text: as §1, §2
(§4) Es co -- escherichia coli

[6] = system: salmonella paratyphi (SA PA) 11737; experiment: agar serial dilution MIC, SA PA 11737; type: cell-based; settings: Salmonella enterica
Text: as §1, §2
Sa pa -- salmonella paratyphi

[7] = system: bordetella brochiseptica (BO BR) 4617; experiment: agar serial dilution MIC, BO BR 4617; type: cell-based; settings: BO BR strain 4617
Text: as §1, §2
Bo br -- bordetella brochiseptica

[8] = system: staphylococcus aureus (ST AU) 6538P; experiment: agar serial dilution MIC, ST AU 6538P; type: cell-based
Text: as §1, §2, §3

[9] = system: escherichia coli (ES CO) 920; experiment: in vivo curative dose in infected mice, ES CO 920; settings: subcutaneous at zero time and 6 hours after i.p. infection, 14 days
Protocol: (§5) The in vivo activity of the antibacterial agents of this invention was established by subcutaneously administering a dose of the compound being tested at zero time and 6 hours after infection to a randomized group of mice which had been infected with a specific infective agent, such as Escherichia coli, etc., via intraperitoneal injection of 0.5 milliliters of the infective agent in 5 per cent gastric mucin. The mice were then observed for 14 days and any deaths were recorded daily. The curative dose (CD50) was then reported in terms of the milligrams per mouse needed for […] of the infective agent.
as §4

[10] = system: bacillus subtilis (BA SU) 663; experiment: agar serial dilution MIC, BA SU 663; type: cell-based; settings: BA SU strain 663
Text: as §1, §2
Ba su -- bacillus subtilis

[11] = system: staphylococcus aureus (ST AU) Smith; experiment: agar serial dilution MIC, ST AU Smith; type: cell-based
Text: as §1, §2, §3

[12] = system: klebsiella pneumoniae (KL PN) 10031; experiment: agar serial dilution MIC, KL PN 10031; type: cell-based; settings: KL PN strain 10031
Text: as §1, §2
Kl pn -- klebsiella pneumoniae

[13] = system: staphylococcus aureus (ST AU) CHP; experiment: agar serial dilution MIC, ST AU CHP; type: cell-based; settings: ST AU strain CHP
Text: as §1, §2, §3

[14] = system: staphylococcus aureus (ST AU) Smith; experiment: in vivo curative dose in infected mice, ST AU Smith; settings: subcutaneous at zero time and 6 hours after i.p. infection, 14 days, mg per mouse, average of several tests
Protocol: as §5, §3

[15] = system: shigella sonnei (SH SO) SH-1; experiment: in vivo curative dose in infected mice, SH SO SH-1; settings: subcutaneous at zero time and 6 hours after i.p. infection, 14 days, mg per mouse, average of several tests
Protocol: as §5

[16] = system: salmonella typhosa (SA TY) SAD-12; experiment: in vivo curative dose in infected mice, SA TY SAD-12; settings: subcutaneous at zero time and 6 hours after i.p. infection, 14 days, mg per mouse, average of several tests
Protocol: as §5
Sa ty -- salmonella typhosa

[17] = system: proteus mirablis (PR MI) PR-3; experiment: in vivo curative dose in infected mice, PR MI PR-3; settings: subcutaneous at zero time and 6 hours after i.p. infection, 14 days, mg per mouse, average of several tests
Protocol: as §5
Pr mi -- proteus mirablis

[18] = agar serial dilution, ST AU strain 6538P, read-out: MIC
[19] = agar serial dilution, ST AU strain Smith, read-out: MIC
[20] = agar serial dilution, ST AU strain 53-180, read-out: MIC

SMILES	MIC [1] [µg/mL]	MIC [2] [µg/mL]	MIC [4] [µg/mL]	MIC [5] [µg/mL]	MIC [6] [µg/mL]	MIC [7] [µg/mL]	MIC [8, 18] [µg/mL]	MIC [10] [µg/mL]	MIC [11, 19] [µg/mL]	MIC [12] [µg/mL]	MIC [13] [µg/mL]	MIC [3, 20] [µg/mL]	also measured
CC(=O)OCC1=C(C(=O)O)N2C(=O)C(NC(=O)C(NC(=S)SCC(=O)O)c3ccccc3)C2SC1 (stereo not drawn) [Example 3, 7-[2-(Dithiocarboxyamino)phenylacetamido]cephalosporanic acid N-carboxymethyl ester]	250 (≈ 463 µM)	250 (≈ 463 µM)	7.81 (≈ 14.5 µM)	31.3 (≈ 58 µM)	15.6 (≈ 28.9 µM)	125 (≈ 232 µM)	7.81 (≈ 14.5 µM)	3.9 (≈ 7.23 µM)	7.81 (≈ 14.5 µM)	31.3 (≈ 58 µM)	31.3 (≈ 58 µM)	–	MIC (EN AE 13048): 250 µg/mL (≈ 463 µM); MIC [3]: 15.6 µg/mL (≈ 28.9 µM); CD50 ([9]; ES CO-920): 6.0 milligrams/mouse
CC(=O)OCC1=C(C(=O)O)N2C(=O)C(NC(=O)CNC(=S)SCC(=O)O)C2SC1 (stereo not drawn) [Example 1, 7-[2-(Dithiocarboxyamino)acetamido]cephalosporanic acid N-carboxymethyl ester]	250 (≈ 539 µM)	250 (≈ 539 µM)	15.6 (≈ 33.7 µM)	62.5 (≈ 135 µM)	7.81 (≈ 16.8 µM)	15.6 (≈ 33.7 µM)	0.976 (≈ 2.11 µM)	0.244 (≈ 0.526 µM)	0.976 (≈ 2.11 µM)	31.3 (≈ 67.5 µM)	3.9 (≈ 8.41 µM)	3.9 (≈ 8.41 µM)	in vivo curative dose (CD50) [14]: 4.37 mg; in vivo curative dose (CD50) [15]: 2.66 mg; in vivo curative dose (CD50) [16]: 1.41 mg; in vivo curative dose (CD50) ([9]; mg per mouse, average of several tests, ES CO 920): 4.48 mg; in vivo curative dose (CD50) [17]: 1.96 mg
CC(=O)OCC1=C(C(=O)O)N2C(=O)C(NC(=O)CCNC(=S)SCC(=O)O)C2SC1 (stereo not drawn) [Example 2, 7-[3-(Dithiocarboxyamino)propionamido]cephalosporanic acid N-carboxymethyl ester]	–	125 (≈ 262 µM)	1.95 (≈ 4.08 µM)	15.6 (≈ 32.7 µM)	0.976 (≈ 2.04 µM)	7.81 (≈ 16.4 µM)	–	0.488 (≈ 1.02 µM)	–	31.3 (≈ 65.5 µM)	3.9 (≈ 8.17 µM)	3.9 (≈ 8.17 µM)	MIC [8]: 0.976 µg/mL (≈ 2.04 µM); MIC [11]: 0.976 µg/mL (≈ 2.04 µM)
